Experimental data taken from ChEMBL document CHEMBL1201862, “PubChem BioAssay data set” (2004).
Active and inactive are the calls of the source.

Columns and labels:
Fatty acid synthase [1] = molecular target: T1, Fatty acid synthase (Homo sapiens, UniProt P49327); assay: inhibition of human FAS-TE enzyme activity – biochemical, kinetic fluorescence intensity, dose response (AID 624326); assay type: functional;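 also: rate of fluorescence rise from hydrolysis of a fluorogenic O-methyl fluorescein ester substrate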
Genome polyprotein [2] = molecular target: Genome polyprotein (Hepatitis C virus, UniProt Q2Q167); assay: disruption of hepatitis C core self-association – biochemical, TR-FRET, dose response (AID 2159); set-up: species or system Hepacivirus hominis;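 also: blocks dimerization of HCV core protein measured by TR-FRET between tagged core106 pairs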
Fatty acid synthase [3] = molecular target: T1, Fatty acid synthase; assay: inhibition of human FAS-TE enzyme activity – biochemical, endpoint fluorescence intensity, uHTS hits, dose response (AID 624327); assay type: functional;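 also: fluorescence from hydrolysis of an O-methyl fluorescein acyl ester substrate by the enzyme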
[4] = molecular target: Voltage-gated inwardly rectifying potassium channel KCNH2 (Homo sapiens, UniProt Q12809); assay: concentration-dependent hERG rescue from blockers – cell-based, thallium flux, dose response (AID 2121); assay type: ADME
Protein skinhead-1 = molecular target: T2, Protein skinhead-1 (Caenorhabditis elegans, UniProt P34707); assay type: functional
T2 sequence (P34707 whole entry): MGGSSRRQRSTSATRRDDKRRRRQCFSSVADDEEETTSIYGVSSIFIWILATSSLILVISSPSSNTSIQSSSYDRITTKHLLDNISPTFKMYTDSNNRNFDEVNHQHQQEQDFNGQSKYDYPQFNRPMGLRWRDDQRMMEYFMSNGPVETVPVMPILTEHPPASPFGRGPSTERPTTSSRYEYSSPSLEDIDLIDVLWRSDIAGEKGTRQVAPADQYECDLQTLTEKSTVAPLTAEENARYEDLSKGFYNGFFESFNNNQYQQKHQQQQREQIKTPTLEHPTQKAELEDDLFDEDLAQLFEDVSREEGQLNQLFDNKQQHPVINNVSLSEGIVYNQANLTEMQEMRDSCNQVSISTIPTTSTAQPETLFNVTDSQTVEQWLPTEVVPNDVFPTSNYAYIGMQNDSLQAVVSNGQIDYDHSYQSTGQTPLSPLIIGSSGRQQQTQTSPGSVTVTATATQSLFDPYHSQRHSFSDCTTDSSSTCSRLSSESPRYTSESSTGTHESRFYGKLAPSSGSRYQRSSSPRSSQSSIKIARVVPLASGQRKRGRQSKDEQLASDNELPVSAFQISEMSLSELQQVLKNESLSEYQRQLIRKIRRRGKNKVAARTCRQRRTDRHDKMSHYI

[5] = molecular target: T3, E3 ubiquitin-protein ligase XIAP (Homo sapiens, UniProt P98170); assay: Counter Screen using XIAP-Bir3 for Chemical Antagonists of Bir1/2 domains of IAP-family anti-apoptotic proteins. [Related pubchem assays (depositor defined):AID1018, AID1449, AID1514, AID1638, AID1749, AID1750, AID488957, AID488963]
H9c2 = assay: cells; assay type: functional, cell-based; conditions: Rattus norvegicus, H9c2, Myocardium;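 also: confirmatory concentration-response retest of ultra-high-throughput screening hits for modulation of myocardial damage; cell death induced by hydrogen peroxide oxidative stress; compound pretreatment for 60 min then peroxide exposure for 2 h; potency is for protecting the cells against peroxide damage rather than for killing them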
[6] = molecular target: T3, E3 ubiquitin-protein ligase XIAP; assay: small molecules displacing peptide from XIAP – biochemical, IAP family, fluorescence polarization (AID 1018); assay type: functional
[7] = molecular target: Transitional endoplasmic reticulum ATPase (Homo sapiens, UniProt P55072); assay: Luminescence dose response biochemical high throughput screening assay for inhibitors of the p97 ATPase: synthesized compounds. [Related pubchem assays: 1481, 1517 ]
[8] = molecular target: Transitional endoplasmic reticulum ATPase (Homo sapiens, UniProt P55072, C522A); assay: Luminescence counterscreen assay for p97 inhibitors: dose response biochemical high throughput screening assay to identify inhibitors of the C522A mutant p97 ATPase: synthesized compounds. [Related pubchem assays: 1481, 1517, 1551 ]
[9] = molecular target: Sphingosine 1-phosphate receptor 2 (Homo sapiens, UniProt O95136); assay: Dose Response Cell Based Assay for Agonists of the S1P2 Receptor of Purchased Analogues. [Related pubchem assays: 729, 843, 854, 736 ]; assay type: functional
[10] = Luminescence Cell-Based Dose Confirmation HTS to Identify Inhibitors of Platelet Dense Granule Release. [Related pubchem assays: 1663 (Primary HTS), 1678 (Summary of Project)]; assay type: functional
[11] = fluconazole-exposed Candida albicans growth modulators – fluorescence, retest, confirmation (AID 2467); assay type: functional, cell-based
[12] = viability loss in Vero cells – cytotoxicity control for Vif-APOBEC3G degradation inhibitor project, dose response (AID 1117358); assay type: functional; conditions: Vero
[13] = molecular target: T4, Mannose-6-phosphate isomerase (Homo sapiens, UniProt P34949); assay: MPI enzyme activity inhibition – biochemical, fluorescence intensity, coupled assay, primary screen (AID 1209)
T4 sequence (P34949 whole entry): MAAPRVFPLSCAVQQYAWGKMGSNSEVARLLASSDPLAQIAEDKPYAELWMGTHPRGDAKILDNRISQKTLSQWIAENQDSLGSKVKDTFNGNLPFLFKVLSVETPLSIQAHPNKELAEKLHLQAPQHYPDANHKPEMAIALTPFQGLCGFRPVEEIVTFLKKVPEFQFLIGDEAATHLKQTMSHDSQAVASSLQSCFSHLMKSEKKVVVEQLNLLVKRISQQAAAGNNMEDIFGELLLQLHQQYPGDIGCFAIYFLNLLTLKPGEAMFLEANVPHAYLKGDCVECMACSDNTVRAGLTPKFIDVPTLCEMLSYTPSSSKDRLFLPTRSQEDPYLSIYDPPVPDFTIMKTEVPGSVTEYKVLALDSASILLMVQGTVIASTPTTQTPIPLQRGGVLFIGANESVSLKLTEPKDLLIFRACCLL

Vero = assay: viability of Vero cells under compound – cytotoxicity control for flavivirus capping enzyme inhibitors (AID 588742); assay type: functional; conditions: Chlorocebus sabaeus
[14] = molecular target: Luciferin 4-monooxygenase (Photinus pyralis, UniProt P08659); assay: inhibition of purified Photinus pyralis luciferase – biochemical, luminescence, dose response (AID 1891)
[15] = molecular target: Polyadenylate-binding protein 1 (Homo sapiens, UniProt P11940); assay: blockers of PABP interaction with poly(A) – biochemical, fluorescence polarization, […] (AID 2014)
[16] = viability loss in THP-1 monocytes – THP-1 cells, cytotoxicity control for Vif-APOBEC3G degradation inhibitor project, dose response (AID 1117359); assay type: functional; conditions: THP-1
Genome polyprotein [17] = molecular target: Genome polyprotein (dengue virus type 2, UniProt P29990); assay: flavivirus cap methylation enzyme inhibition – biochemical, confirmation dose response, primary screen (AID 588689); assay type: functional
[18] = molecular target: Eukaryotic translation initiation factor 4H (Homo sapiens, UniProt Q15056); assay: eIF4H binding inhibition – biochemical, uHTS, fluorescence polarization, translation initiation inhibitor project, primary screen (AID 2012)
[19] = molecular target: T5, Long-chain-fatty-acid--AMP ligase FadD28 (Mycobacterium tuberculosis, UniProt P9WQ59); assay: Fluorescence polarization aasay to screen for inhibitors that compete for the binding of FadD28 to a bisubstrate Measured in Biochemical System Using Plate Reader - 2147-01_Inhibitor_Dose_CherryPick_Activity.; assay type: functional, Mycobacterium tuberculosis H37Rv
T5 sequence (P9WQ59 whole entry): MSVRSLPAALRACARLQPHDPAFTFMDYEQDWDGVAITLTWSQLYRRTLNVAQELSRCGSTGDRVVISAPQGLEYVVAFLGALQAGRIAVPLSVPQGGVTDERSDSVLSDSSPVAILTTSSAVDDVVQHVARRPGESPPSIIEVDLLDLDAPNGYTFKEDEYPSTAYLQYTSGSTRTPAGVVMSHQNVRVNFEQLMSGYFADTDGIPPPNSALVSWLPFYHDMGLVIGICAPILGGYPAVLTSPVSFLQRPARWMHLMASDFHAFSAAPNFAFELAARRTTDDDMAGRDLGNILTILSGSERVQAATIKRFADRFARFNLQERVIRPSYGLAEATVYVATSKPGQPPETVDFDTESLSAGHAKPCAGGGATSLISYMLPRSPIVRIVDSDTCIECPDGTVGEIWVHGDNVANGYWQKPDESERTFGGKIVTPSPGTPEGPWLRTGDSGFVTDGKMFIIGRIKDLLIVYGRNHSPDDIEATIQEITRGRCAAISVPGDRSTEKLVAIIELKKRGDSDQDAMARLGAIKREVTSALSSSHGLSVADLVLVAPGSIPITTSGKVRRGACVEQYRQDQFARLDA

[20] = molecular target: Induced myeloid leukemia cell differentiation protein Mcl-1 (Homo sapiens, UniProt Q07820); assay type: functional
Protein Tat = Protein Tat (Human immunodeficiency virus type 1 group M subtype B (isolate HXB2)(HIV-1), UniProt P04608); assay type: functional;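 also: tat binding to TAR RNA read out by fluorescence polarization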
[21] = NIH-3T3 fibroblast cytotoxicity, dose response, cytotoxicity control, cell-based, fluorescence, Alamar Blue, secondary assay (AID 2327); assay type: functional;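 also: NIH-3T3 mouse fibroblasts cultured with fluconazole at 8 µg/mL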
[22] = molecular target: T6, Dual specificity protein phosphatase 6 (Rattus norvegicus, UniProt Q64346); assay: inhibition of rat DUSP6 enzyme activity – biochemical, in vitro, primary screen (AID 425)
T6 sequence (Q64346 whole entry): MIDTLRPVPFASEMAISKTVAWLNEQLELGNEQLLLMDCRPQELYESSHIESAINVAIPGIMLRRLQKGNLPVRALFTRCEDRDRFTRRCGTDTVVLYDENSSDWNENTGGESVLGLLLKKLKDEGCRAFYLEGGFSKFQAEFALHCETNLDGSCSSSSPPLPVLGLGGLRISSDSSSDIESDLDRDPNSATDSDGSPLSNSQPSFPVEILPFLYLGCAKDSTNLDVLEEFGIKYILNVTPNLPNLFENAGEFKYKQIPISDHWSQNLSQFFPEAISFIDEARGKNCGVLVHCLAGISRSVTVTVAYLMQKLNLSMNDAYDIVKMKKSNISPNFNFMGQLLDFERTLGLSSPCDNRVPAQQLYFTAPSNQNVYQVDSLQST

[23] = molecular target: Mitogen-activated protein kinase 10 (Homo sapiens, UniProt P53779); assay: Dose response biochemical screening assay for inhibitors of c-Jun N-Terminal Kinase 3 (JNK3). [Related pubchem assays: 746 ]
[24] = viability of HCT116 lacking mutant beta-catenin – cell-based, human colon tumor, dose response (AID 1045); assay type: functional;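 also: HCT116 colon tumor cells with beta catenin knocked out; cells exposed to compound for 60 hours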
[25] = viability of PTEN-deleted HCT116 cells – cell-based, HCT116 PTEN knockout, dose response (AID 1047); assay type: functional;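 also: HCT116 colon tumor cells with PTEN knocked out; cells exposed to compound for 60 hours before readout; potency for loss of cell viability measured by luminescence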
[26] = molecular target: Protein-tyrosine kinase 2-beta (Homo sapiens, UniProt Q14289);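 also: potency of inhibitors of PYK2 kinase phosphorylation of poly-GT substrate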

T1 sequence (P49327 whole entry): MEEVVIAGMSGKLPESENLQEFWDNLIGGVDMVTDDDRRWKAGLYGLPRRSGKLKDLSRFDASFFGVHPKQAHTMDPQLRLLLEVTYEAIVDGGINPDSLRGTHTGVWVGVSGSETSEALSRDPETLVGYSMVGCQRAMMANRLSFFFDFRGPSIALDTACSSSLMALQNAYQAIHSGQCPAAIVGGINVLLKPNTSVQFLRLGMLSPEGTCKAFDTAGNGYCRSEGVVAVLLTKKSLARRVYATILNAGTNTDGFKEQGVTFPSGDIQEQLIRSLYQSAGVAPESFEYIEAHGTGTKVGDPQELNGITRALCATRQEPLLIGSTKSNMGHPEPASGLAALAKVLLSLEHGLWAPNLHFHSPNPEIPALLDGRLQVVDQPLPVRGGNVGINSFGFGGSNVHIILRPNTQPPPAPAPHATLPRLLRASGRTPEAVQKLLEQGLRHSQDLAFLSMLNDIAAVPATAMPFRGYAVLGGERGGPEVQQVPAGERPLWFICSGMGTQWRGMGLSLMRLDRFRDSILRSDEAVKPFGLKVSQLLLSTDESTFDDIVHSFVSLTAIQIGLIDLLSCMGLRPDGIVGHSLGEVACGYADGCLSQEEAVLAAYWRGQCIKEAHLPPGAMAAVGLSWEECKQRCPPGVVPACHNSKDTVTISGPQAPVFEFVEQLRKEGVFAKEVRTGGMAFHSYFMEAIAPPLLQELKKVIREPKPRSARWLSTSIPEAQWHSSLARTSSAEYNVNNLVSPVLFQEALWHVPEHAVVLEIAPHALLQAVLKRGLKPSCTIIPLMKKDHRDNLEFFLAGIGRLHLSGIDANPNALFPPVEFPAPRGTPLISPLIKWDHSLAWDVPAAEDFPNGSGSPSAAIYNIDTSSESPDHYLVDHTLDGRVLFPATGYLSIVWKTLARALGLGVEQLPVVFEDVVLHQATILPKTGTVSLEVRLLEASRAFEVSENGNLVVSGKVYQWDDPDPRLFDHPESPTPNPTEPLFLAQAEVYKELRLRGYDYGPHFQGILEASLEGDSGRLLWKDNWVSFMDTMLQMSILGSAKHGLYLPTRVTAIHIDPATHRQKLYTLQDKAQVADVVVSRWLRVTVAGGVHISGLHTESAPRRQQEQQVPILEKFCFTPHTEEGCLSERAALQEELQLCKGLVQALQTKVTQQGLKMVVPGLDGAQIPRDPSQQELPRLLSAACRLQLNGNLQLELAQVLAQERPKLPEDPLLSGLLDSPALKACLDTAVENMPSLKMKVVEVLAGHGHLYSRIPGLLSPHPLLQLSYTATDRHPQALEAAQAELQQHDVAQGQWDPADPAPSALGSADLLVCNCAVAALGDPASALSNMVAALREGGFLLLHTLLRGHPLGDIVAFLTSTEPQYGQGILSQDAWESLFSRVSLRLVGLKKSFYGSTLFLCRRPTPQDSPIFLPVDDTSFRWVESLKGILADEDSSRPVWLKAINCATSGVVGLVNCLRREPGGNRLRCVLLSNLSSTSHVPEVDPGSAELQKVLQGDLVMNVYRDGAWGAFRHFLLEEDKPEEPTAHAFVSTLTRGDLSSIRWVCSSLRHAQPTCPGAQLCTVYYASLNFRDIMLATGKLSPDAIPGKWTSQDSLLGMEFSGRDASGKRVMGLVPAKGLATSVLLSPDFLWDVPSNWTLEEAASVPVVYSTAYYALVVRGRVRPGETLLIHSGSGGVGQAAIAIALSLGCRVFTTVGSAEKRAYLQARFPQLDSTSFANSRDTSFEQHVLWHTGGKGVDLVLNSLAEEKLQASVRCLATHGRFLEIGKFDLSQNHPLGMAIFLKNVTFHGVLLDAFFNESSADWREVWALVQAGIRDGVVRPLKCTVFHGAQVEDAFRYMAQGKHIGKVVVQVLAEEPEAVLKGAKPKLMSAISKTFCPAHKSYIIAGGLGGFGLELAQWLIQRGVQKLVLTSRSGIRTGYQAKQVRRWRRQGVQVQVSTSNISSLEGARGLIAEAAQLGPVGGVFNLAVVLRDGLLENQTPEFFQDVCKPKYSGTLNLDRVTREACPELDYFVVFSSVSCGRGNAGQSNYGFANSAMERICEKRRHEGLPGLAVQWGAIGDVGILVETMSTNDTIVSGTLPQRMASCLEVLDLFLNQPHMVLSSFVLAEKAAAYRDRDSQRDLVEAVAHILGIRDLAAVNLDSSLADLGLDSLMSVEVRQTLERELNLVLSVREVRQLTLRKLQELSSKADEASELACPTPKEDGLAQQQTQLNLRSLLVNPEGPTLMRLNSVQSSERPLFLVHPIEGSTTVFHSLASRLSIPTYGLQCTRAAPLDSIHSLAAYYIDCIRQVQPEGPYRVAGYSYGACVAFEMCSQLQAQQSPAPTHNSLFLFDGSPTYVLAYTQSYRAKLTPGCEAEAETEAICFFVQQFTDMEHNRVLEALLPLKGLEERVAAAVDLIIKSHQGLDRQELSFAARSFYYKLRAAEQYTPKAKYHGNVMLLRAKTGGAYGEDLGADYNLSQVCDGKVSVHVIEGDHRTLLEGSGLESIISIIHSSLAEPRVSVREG
T3 sequence (P98170 whole entry): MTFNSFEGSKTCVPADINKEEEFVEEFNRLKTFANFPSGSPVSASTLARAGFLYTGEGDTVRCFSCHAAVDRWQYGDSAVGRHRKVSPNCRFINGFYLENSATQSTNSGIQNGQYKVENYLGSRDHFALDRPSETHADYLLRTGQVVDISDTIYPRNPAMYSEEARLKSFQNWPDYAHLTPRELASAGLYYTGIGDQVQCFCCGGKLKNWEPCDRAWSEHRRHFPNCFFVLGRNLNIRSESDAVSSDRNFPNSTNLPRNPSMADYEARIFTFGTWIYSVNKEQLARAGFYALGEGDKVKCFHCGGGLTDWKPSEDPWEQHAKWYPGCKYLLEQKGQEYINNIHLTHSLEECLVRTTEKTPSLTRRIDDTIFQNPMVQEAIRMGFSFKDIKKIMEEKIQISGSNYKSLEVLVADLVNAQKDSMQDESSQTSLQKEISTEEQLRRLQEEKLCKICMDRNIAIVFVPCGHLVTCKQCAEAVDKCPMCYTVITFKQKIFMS
Chain of Voltage-gated inwardly rectifying potassium channel KCNH2 (Q12809 whole entry): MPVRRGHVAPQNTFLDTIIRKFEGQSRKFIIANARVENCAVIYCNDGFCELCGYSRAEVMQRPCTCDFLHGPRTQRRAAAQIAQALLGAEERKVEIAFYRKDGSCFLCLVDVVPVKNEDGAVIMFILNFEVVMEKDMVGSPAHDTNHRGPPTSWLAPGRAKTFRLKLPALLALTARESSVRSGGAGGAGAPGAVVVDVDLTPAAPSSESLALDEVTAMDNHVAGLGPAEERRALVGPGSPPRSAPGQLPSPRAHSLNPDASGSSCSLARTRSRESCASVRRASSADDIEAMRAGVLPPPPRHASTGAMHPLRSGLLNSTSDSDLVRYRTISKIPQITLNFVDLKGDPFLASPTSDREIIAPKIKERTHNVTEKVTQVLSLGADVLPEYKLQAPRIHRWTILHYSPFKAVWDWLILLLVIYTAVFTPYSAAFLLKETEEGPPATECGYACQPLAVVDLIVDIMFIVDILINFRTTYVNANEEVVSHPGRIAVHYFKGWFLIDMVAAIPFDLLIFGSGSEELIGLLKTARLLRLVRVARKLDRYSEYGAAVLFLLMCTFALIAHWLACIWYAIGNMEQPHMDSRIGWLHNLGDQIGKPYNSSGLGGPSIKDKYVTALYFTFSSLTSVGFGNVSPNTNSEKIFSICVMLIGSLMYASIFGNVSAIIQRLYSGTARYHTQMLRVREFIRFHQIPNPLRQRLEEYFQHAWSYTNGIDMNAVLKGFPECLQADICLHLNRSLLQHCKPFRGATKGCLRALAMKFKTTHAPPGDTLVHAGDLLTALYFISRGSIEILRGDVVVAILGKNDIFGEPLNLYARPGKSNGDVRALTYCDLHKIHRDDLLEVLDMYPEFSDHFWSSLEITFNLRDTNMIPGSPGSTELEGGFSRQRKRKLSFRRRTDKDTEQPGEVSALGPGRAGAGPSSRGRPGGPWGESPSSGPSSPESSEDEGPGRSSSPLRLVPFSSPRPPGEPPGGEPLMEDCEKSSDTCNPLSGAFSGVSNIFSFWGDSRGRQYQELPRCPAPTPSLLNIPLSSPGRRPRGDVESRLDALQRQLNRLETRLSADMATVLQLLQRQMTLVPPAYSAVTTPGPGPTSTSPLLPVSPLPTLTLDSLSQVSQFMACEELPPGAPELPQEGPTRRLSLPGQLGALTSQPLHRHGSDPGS
Chain of Induced myeloid leukemia cell differentiation protein Mcl-1 (Q07820 whole entry): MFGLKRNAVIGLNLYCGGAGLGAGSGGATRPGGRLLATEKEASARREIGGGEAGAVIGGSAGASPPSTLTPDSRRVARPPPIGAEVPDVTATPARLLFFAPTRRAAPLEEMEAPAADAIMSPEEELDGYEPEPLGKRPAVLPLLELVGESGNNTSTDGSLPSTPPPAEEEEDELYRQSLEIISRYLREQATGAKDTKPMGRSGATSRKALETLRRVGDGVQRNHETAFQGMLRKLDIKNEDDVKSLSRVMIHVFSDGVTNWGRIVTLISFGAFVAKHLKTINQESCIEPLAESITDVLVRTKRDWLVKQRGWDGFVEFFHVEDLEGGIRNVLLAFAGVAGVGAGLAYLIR
Chain of Genome polyprotein (Hepatitis C virus, UniProt Q2Q167) (Q2Q167 whole entry): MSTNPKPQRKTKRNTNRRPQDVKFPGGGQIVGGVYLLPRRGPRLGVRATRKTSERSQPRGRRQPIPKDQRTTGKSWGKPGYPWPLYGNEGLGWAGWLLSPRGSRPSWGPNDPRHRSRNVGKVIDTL
Chain of Protein Tat (P04608 whole entry): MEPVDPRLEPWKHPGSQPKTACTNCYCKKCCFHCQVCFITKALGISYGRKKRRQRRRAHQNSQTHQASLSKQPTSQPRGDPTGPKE

With `COc1ccc(C2CC(c3cccs3)=NN2C(=O)CSc2nc(=O)n3ccc(C)cc3n2)cc1` (stereo not given) the IC50 (Fatty acid synthase [1]) was 7.51 µM (active), the IC50 (Genome polyprotein [2]) was > 49.8 µM (not active) and the IC50 (Fatty acid synthase [3]) was 8.11 µM (active).

For `N#Cc1c(NC(=O)c2cc(-n3cnnc3)ccc2Cl)sc2c1CCCC2`, the EC50 [4] was 12.7 µM (active).

In the case of `Cc1ccc2cc3c(NC(=O)c4cccnc4)nn(C)c3nc2c1`, the IC50 (Protein skinhead-1) is reported as > 100 µM (inactive), the IC50 [5] is reported as > 100 µM (inactive) and the IC50 (H9c2) is reported as > 79 µM (inactive). The IC50 [6] was > 100 µM (not active).

With `N#Cc1ccc(Nc2nc(-c3ccc(C#N)cc3)cs2)cc1` the IC50 [7] was > 50 µM (not active) and the IC50 [8] was > 50 µM (not active).

In the case of `Cc1cc(C)nc(SCC(=O)OCC(=O)c2cc(C)n(Cc3ccccc3)c2C)n1`, the EC50 [9] is reported as > 30 µM (not active).

In the case of `C/N=c1\scc(-c2cccs2)n1/N=C/c1ccc(O)c(O)c1O`, the EC50 [10] is reported as 1.53 µM (active), the EC50 [11] is reported as > 38 µM (not active) and the CC50 [12] is reported as > 40 µM (active). The IC50 [13] was 15.5 µM (active), the CC50 (Vero) was 13 µM (active) and the EC50 [14] was 0.636 µM (active). For the same compound, the IC50 [15] was > 100 µM (inactive), the CC50 [16] was 12.1 µM (active) and the IC50 (Genome polyprotein [17]) was 70.7 µM (active). For the same compound, the IC50 [18] was 59.2 µM (active), the AC50 [19] was > 100 µM (inactive) and the IC50 [20] was 7.08 µM (active). The IC50 (Protein Tat) was 98.1 µM (inconclusive) and the EC50 [21] was > 150 µM (inactive).

In the case of `O=C(Nc1cccc(-c2nc3ccccc3[nH]2)c1)c1cccc(NC(=O)c2ccco2)c1`, the IC50 [22] is reported as 2.5 µM (active), the IC50 [23] is reported as 68.5 µM (not active) and the EC50 [24] is reported as 53.7 µM (active). For the same compound, the EC50 [25] was 57.9 µM (active) and the IC50 [26] was 5.03 µM (active).
